We go through 18 compounds from ChEMBL document CHEMBL5291721, “A preclinical secondary pharmacology resource illuminates target-adverse drug reaction associations of marketed drugs” (Nat Commun, 2023).

Assay [1] has as its target T1, Muscarinic acetylcholine receptor M1 (Homo sapiens, UniProt P11229).
T1 sequence (P11229 whole entry): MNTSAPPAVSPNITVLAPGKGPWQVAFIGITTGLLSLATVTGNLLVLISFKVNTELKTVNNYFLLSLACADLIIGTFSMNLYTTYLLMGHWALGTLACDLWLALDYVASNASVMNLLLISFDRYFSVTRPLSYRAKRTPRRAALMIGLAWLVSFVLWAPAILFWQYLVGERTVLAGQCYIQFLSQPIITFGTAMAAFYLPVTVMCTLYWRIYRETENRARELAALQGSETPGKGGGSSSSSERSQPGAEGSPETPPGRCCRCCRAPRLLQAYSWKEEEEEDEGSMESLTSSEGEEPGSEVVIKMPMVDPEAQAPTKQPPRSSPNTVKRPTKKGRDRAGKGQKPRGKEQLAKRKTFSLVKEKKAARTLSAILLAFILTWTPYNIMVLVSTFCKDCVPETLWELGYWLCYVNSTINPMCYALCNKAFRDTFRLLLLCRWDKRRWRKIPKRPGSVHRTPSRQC
Format: functional, cell-based.

The target of assay [2] is Gamma-aminobutyric acid receptor subunit alpha-1 (Rattus norvegicus, UniProt P62813).
The target of the next assay is T2, Thromboxane A2 receptor (Homo sapiens, UniProt P21731).
T2 sequence (P21731 whole entry): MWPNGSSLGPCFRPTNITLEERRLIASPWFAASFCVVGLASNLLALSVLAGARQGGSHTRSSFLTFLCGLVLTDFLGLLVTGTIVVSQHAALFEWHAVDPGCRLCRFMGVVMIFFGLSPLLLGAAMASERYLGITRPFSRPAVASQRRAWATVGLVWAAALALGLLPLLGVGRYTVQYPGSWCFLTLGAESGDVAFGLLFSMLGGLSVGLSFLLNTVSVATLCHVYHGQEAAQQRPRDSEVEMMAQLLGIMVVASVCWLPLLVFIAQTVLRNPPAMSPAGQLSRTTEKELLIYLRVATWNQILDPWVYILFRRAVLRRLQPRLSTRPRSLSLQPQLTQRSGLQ
It is filed as functional, cell-based.

Assay [3] has as its target T3, 5-hydroxytryptamine receptor 1A (Homo sapiens, UniProt P08908).
T3 sequence (P08908 whole entry): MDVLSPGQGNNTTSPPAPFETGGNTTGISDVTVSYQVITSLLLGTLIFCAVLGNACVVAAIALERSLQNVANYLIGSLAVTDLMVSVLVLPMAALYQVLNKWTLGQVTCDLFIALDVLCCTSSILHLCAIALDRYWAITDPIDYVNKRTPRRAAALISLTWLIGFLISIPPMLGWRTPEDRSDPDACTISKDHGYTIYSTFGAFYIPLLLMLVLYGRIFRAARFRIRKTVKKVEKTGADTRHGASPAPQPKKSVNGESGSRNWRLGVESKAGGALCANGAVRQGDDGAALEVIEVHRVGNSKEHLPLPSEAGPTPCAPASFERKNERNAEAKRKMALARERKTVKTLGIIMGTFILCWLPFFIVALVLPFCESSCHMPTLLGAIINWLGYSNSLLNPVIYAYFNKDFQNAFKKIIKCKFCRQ

In another assay the target is T4, Estrogen receptor (Homo sapiens, UniProt P03372).
T4 sequence (P03372 whole entry): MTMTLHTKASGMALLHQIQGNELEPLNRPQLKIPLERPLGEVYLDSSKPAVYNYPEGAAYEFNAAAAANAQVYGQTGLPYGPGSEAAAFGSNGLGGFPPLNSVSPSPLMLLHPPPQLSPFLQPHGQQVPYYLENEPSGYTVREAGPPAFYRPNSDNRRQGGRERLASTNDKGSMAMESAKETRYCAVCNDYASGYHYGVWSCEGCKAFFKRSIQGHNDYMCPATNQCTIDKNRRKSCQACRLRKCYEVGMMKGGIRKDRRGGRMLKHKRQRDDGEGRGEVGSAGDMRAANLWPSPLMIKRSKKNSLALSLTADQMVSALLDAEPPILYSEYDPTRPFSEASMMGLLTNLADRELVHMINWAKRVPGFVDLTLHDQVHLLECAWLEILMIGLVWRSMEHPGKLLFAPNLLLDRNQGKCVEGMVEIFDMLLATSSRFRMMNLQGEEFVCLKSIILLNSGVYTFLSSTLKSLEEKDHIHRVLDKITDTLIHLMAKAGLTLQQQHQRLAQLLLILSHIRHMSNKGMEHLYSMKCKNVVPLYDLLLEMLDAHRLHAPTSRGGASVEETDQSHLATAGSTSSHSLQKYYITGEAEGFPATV

Assay [4] has as its target Neuronal acetylcholine receptor subunit alpha-4 (Homo sapiens, UniProt P43681).
Further: assay procedure not described here.

Chain of Gamma-aminobutyric acid receptor subunit alpha-1 (P62813 whole entry): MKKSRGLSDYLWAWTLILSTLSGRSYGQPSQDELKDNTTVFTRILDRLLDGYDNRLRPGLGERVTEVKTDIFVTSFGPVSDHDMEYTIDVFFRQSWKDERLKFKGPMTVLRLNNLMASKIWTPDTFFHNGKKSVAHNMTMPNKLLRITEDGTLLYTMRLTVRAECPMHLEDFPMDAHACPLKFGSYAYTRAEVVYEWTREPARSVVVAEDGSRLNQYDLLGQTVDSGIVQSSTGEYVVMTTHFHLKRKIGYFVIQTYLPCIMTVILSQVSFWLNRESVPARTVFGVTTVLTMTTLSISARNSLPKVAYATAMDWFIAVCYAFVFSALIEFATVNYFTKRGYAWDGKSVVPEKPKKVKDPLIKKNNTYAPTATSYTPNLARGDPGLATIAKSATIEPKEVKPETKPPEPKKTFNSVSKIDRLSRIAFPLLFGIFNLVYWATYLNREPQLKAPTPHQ
Chain of Neuronal acetylcholine receptor subunit alpha-4 (P43681 whole entry): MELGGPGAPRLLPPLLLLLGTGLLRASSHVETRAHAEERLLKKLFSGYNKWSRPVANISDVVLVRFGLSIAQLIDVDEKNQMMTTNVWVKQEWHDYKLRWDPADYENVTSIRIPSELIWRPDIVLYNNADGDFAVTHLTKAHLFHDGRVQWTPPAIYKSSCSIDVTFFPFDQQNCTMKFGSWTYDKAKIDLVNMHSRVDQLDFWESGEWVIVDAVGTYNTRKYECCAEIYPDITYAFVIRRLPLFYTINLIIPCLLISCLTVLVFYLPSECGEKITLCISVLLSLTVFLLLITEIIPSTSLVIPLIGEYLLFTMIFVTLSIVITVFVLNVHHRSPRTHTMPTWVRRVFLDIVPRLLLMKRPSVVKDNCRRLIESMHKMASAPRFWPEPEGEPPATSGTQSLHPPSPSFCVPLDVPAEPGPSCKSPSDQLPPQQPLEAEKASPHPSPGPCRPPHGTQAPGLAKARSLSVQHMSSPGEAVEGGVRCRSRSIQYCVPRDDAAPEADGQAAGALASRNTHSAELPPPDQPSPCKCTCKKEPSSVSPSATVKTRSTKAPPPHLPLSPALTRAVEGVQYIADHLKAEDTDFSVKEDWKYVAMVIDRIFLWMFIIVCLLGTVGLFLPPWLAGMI

In the case of `C[S+](CC[C@H](N)C(=O)[O-])C[C@H]1O[C@@H](n2cnc3c(N)ncnc32)[C@H](O)[C@@H]1O` (some centres undefined) [ADEMETIONINE], the AC50 (in assay [1]; in assay [2]; at Thromboxane A2 receptor; in assay [3]) was more than 30 µM each time.

In the case of `CCC(C)(C)c1ccc(CC(C)CN2C[C@@H](C)O[C@@H](C)C2)cc1` (some centres undefined) [AMOROLFINE], the concentration at half-maximal activity (AC50) in assay [1] is 10.8 µM; in assay [2], more than 30 µM; on Estrogen receptor, more than 30 µM; on Thromboxane A2 receptor it was more than 30 µM; in assay [3], more than 30 µM.

With `NC(=O)C[C@H](N)C(=O)O` [ASPARAGINE], the AC50 (in assay [1]; in assay [2]; on Thromboxane A2 receptor; in assay [3]) was more than 30 µM in each case.

On to `Clc1ccc(C(OCCN2CCCCC2)c2ccccc2)cc1` (centres undefined) [CLOPERASTINE], for which the concentration at half-maximal activity (AC50) in assay [1] is 0.551 µM; in assay [2], more than 30 µM; on Estrogen receptor, more than 30 µM; at Thromboxane A2 receptor, 17 µM; in assay [3], 20.1 µM.

Compound `CN(C)CCC=C1c2ccccc2C=Cc2ccccc21` [CYCLOBENZAPRINE] returned a concentration at half-maximal activity (AC50) in assay [4] of more than 10 µM.

Turning to `CN(C)CC/C=C1\c2ccccc2CSc2ccccc21` [DOTHIEPIN], the half-maximal activity concentration (AC50) in assay [4] is more than 30 µM.

For the compound `CC[C@H]1CN2CCc3cc(OC)c(OC)cc3[C@@H]2C[C@@H]1C[C@H]1NCCc2cc(OC)c(OC)cc21` [EMETINE], the AC50 is more than 30 µM in assay [2], more than 30 µM in assay [4], more than 30 µM on Thromboxane A2 receptor and 22.7 µM in assay [3].

For `Clc1cc(Cl)c(OCC#CI)cc1Cl` [HALOPROGIN], the AC50 (in assay [2]; at Estrogen receptor; on Thromboxane A2 receptor; in assay [3]) was more than 30 µM in each case.

In the case of `Cc1cc(C)c(NC(=O)CN(CC(=O)O)CC(=O)O)c(C)c1Br` [MEBROFENIN], the AC50 (in assay [2]; on Thromboxane A2 receptor; in assay [3]) was more than 30 µM each time.

Regarding `Cc1cc(OP(=O)(O)O)c2ccccc2c1OP(=O)(O)O` [MENADIOL SODIUM DIPHOSPHATE], the AC50 (in assay [1]; in assay [2]; at Thromboxane A2 receptor; in assay [3]) was more than 30 µM throughout.

Regarding `Cc1ccccc1OCC(O)CO` (centres undefined) [MEPHENESIN], the AC50 was more than 30 µM in assay [1], more than 10 µM in assay [2], more than 30 µM at Thromboxane A2 receptor and more than 30 µM in assay [3].

`COc1ccccc1N1CCN(CC(O)COc2cccc3ccccc23)CC1` (centres undefined) [NAFTOPIDIL]: the concentration at half-maximal activity (AC50) was more than 30 µM in assay [2], more than 10 µM in assay [4], more than 3 µM at Thromboxane A2 receptor and 0.0086 µM in assay [3].

Consider `COc1cc2nc(N3CCN(C(=O)c4ccco4)CC3)nc(N)c2cc1OC` [PRAZOSIN], for which the concentration at half-maximal activity (AC50) in assay [2] is more than 30 µM; in assay [4], more than 10 µM; at Estrogen receptor, more than 30 µM; on Thromboxane A2 receptor, more than 30 µM.

As to `Cc1oc(=O)oc1CN1CCN(c2cc3c(cc2F)c(=O)c(C(=O)O)c2n3C(C)S2)CC1` (centres undefined) [PRULIFLOXACIN], the half-maximal activity concentration (AC50) (in assay [2]; on Estrogen receptor; at Thromboxane A2 receptor; in assay [3]) was more than 30 µM in each case.

As to `O=c1[nH]c(=O)n(C2CCCO2)cc1F` (centres undefined) [TEGAFUR], the AC50 (in assay [2]; at Thromboxane A2 receptor; in assay [3]) was more than 30 µM throughout.

`CCCCCNC(=N)N/N=C/c1c[nH]c2ccc(OC)cc12` [TEGASEROD]: the concentration at half-maximal activity (AC50) in assay [1] is more than 3 µM; in assay [2], more than 30 µM; in assay [4] it was more than 30 µM; at Thromboxane A2 receptor, more than 3 µM; in assay [3] it was 0.04 µM.

Consider `C=CCCCCCCCCC(=O)O` [UNDECYLENIC ACID], for which the AC50 (in assay [2]; on Estrogen receptor; at Thromboxane A2 receptor; in assay [3]) was more than 30 µM throughout.

On to `CN(C)CCc1c[nH]c2ccc(C[C@H]3COC(=O)N3)cc12` [ZOLMITRIPTAN], for which the AC50 in assay [4] was more than 30 µM.

As usually defined, the AC50 is the midpoint of the concentration-response curve, whichever way the signal moves.
